From article PMC9387934, “Randomized single oral dose phase 1 study of safety, tolerability, and pharmacokinetics of Iminosugar UV-4 Hydrochloride (UV-4B) in healthy subjects” (PLoS Neglected Tropical Diseases, 2022)
Where “and” joins values, the source holds several entries; their conditions need not be identical. Equal values may be shown once.

Test: Phase 1a single ascending dose study: UV-4 plasma concentrations and PK parameters (LC-MS/MS, noncompartmental)
Format: in vivo
Conditions: for CONCENTRATION UV4: human plasma
Experimental: UV-4 ((2R,3R,4R,5S)-2-(hydroxymethyl)-1-(9-methoxynonyl)piperidine-3,4,5-triol, also called N-(9’-methoxynonyl)-1-deoxynojirimycin, or MON-DNJ) hydrochloride was evaluated in a first-in-human, randomized, single-center, double-blind, placebo-controlled, parallel group, single ascending dose Phase 1a clinical trial in healthy subjects (Figs 1 and 2, ClinicalTrials.gov Identifier NCT02061358 https://clinicaltrials.gov/ct2/show/NCT02061358). The primary objective was to determine the safety and tolerability of a single-ascending oral dose of UV-4 hydrochloride (Fig 3). […] The secondary objective was to determine PK parameters describing absorption and elimination of UV-4 following a single oral dose of UV-4 hydrochloride. Eight cohorts of eight subjects each were enrolled and completed the study. In each cohort, six subjects received UV-4 as the hydrochloride; two received placebo. Subjects were screened against study eligibility criteria up to four weeks (Days -28 to -2) before admission to the clinic (Day -1). Dosing was performed on an inpatient basis. Subjects remained in clinic for 48 hours post-dosing for PK sample collection and safety assessments and were discharged from the clinic on Day 3. Subjects returned to the clinic on Day 4 for additional safety assessments, then again on Day 9 ± 1 for a final follow-up visit.
Eligible subjects were healthy males and females, age 18–45 years, with a body mass index between 18 and 30 kg/m^2 inclusive and a minimum body weight of 60 kg. Subjects were considered healthy based on medical history, physical exam, vital signs, 12-lead electrocardiogram (ECG), clinical laboratory tests (hematology, blood chemistry, urinalysis), viral serology, and drug and alcohol screening. Male and female subjects of childbearing potential were required to use adequate contraception over the course of the clinical trial. […] Only subjects who met all inclusion and none of the exclusion criteria prior to administration of the investigational product were enrolled into the study (no exemptions were granted). A total of 64 subjects were enrolled (eight cohorts of eight subjects each). In each of the eight cohorts, six subjects were randomized to receive a single dose of UV-4 (3 to 1000 mg, depending on cohort) as the hydrochloride salt, and two subjects to receive placebo. Cohort size of six active subjects was based on analysis that increasing cohort size above six in a first-in-human study gains little in the ability to observe a drug induced event, and results in observing more events that are not related to study drug. Two of the eight subjects in each cohort (sentinel subjects; one active and one placebo) received their doses at least 48 h before the remaining subjects in each cohort.
On each day of use, bulk drug substance (UV-4B for solubilization, SAI Life Sciences Ltd. Telangana, India) was removed from a single-use container, weighed at the study center, and solubilized in 20 mL sterile water for injection (SWFI) (Hospira Inc. Illinois, United States of America). Weight of solid drug substance was converted to dose of UV-4 by applying purity and salt correction factor per pharmacy manual when preparing the dosing solution. UV-4B solution was administered orally with 10 mL of taste-masking agent, OraSweet-SF (Paddock Laboratories LLC, Minneapolis, United States of America) in a total volume of 30 mL, to assist in maintaining study blinding. Placebo was SWFI (20 mL) plus OraSweet-SF (10 mL). Concentrations and doses were calculated and expressed as the active free base form, UV-4. This methodology is consistent with USP<1121>, which recommends that the strength of a drug product or preparation is expressed in terms of the active moiety. Following consumption of active or placebo solution, the dosing container was rinsed with 50 mL of tap water also consumed by subjects. […]

COCCCCCCCCCN1C[C@H](O)[C@@H](O)[C@H](O)[C@H]1CO [UV4]
CONCENTRATION UV4 in human plasma (Cohort 7, nominal day 1, nominal hour 0, individual subjects): <LLOQ (0.500) ng/mL
CONCENTRATION UV4 in human plasma (Cohort 7, nominal day 1, nominal hour 0, subject with all samples <LLOQ): <LLOQ (0.500) ng/mL
CONCENTRATION UV4 in human plasma (Cohort 7, nominal day 1, nominal hour 0.5, individual subjects): 8420 ng/mL and 5960 ng/mL and 5510 ng/mL and 13200 ng/mL and 9650 ng/mL
CONCENTRATION UV4 in human plasma (Cohort 7, nominal day 1, nominal hour 0.5, subject with all samples <LLOQ): <LLOQ (0.500) ng/mL
CONCENTRATION UV4 in human plasma (Cohort 7, nominal day 1, nominal hour 1, individual subjects): 8390 ng/mL and 11600 ng/mL and 8700 ng/mL and 11700 ng/mL and 8870 ng/mL
CONCENTRATION UV4 in human plasma (Cohort 7, nominal day 1, nominal hour 1, subject with all samples <LLOQ): <LLOQ (0.500) ng/mL
CONCENTRATION UV4 in human plasma (Cohort 7, nominal day 1, nominal hour 1.5, individual subjects): 7250 ng/mL and 7490 ng/mL and 5760 ng/mL and 7510 ng/mL and 6190 ng/mL
CONCENTRATION UV4 in human plasma (Cohort 7, nominal day 1, nominal hour 1.5, subject with all samples <LLOQ): <LLOQ (0.500) ng/mL
CONCENTRATION UV4 in human plasma (Cohort 7, nominal day 1, nominal hour 2, individual subjects): 5560 ng/mL and 6260 ng/mL and 4660 ng/mL and 6160 ng/mL and 5490 ng/mL
CONCENTRATION UV4 in human plasma (Cohort 7, nominal day 1, nominal hour 2, subject with all samples <LLOQ): <LLOQ (0.500) ng/mL
CONCENTRATION UV4 in human plasma (Cohort 7, nominal day 1, nominal hour 2.5, individual subjects): 4270 ng/mL and 6030 ng/mL and 3950 ng/mL and 4710 ng/mL and 4800 ng/mL
CONCENTRATION UV4 in human plasma (Cohort 7, nominal day 1, nominal hour 2.5, subject with all samples <LLOQ): <LLOQ (0.500) ng/mL
CONCENTRATION UV4 in human plasma (Cohort 7, nominal day 1, nominal hour 3, individual subjects): 3650 ng/mL and 5660 ng/mL and 3610 ng/mL and 4080 ng/mL and 4540 ng/mL
CONCENTRATION UV4 in human plasma (Cohort 7, nominal day 1, nominal hour 3, subject with all samples <LLOQ): <LLOQ (0.500) ng/mL
CONCENTRATION UV4 in human plasma (Cohort 7, nominal day 1, nominal hour 4, individual subjects): 2230 ng/mL and 3760 ng/mL and 2630 ng/mL and 3120 ng/mL and 3370 ng/mL
CONCENTRATION UV4 in human plasma (Cohort 7, nominal day 1, nominal hour 4, subject with all samples <LLOQ): <LLOQ (0.500) ng/mL
CONCENTRATION UV4 in human plasma (Cohort 7, nominal day 1, nominal hour 6, individual subjects): 1120 ng/mL and 1930 ng/mL and 1770 ng/mL and 1610 ng/mL and 1730 ng/mL
CONCENTRATION UV4 in human plasma (Cohort 7, nominal day 1, nominal hour 6, subject with all samples <LLOQ): <LLOQ (0.500) ng/mL
CONCENTRATION UV4 in human plasma (Cohort 7, nominal day 1, nominal hour 9, individual subjects): 429 ng/mL and 642 ng/mL and 790 ng/mL and 588 ng/mL and 656 ng/mL
CONCENTRATION UV4 in human plasma (Cohort 7, nominal day 1, nominal hour 9, subject with all samples <LLOQ): <LLOQ (0.500) ng/mL
CONCENTRATION UV4 in human plasma (Cohort 7, nominal day 1, nominal hour 12, individual subjects): 184 ng/mL and 254 ng/mL and 352 ng/mL and 266 ng/mL and 301 ng/mL
CONCENTRATION UV4 in human plasma (Cohort 7, nominal day 1, nominal hour 12, subject with all samples <LLOQ): <LLOQ (0.500) ng/mL
CONCENTRATION UV4 in human plasma (Cohort 7, nominal day 1, nominal hour 18, individual subjects): 47.6 ng/mL and 69.6 ng/mL and 82.9 ng/mL and 80.3 ng/mL and 78.0 ng/mL
CONCENTRATION UV4 in human plasma (Cohort 7, nominal day 1, nominal hour 18, subject with all samples <LLOQ): <LLOQ (0.500) ng/mL
CONCENTRATION UV4 in human plasma (Cohort 7, nominal day 2, nominal hour 24, individual subjects): 58.7 ng/mL and 27.8 ng/mL and 38.9 ng/mL and 46.4 ng/mL and 45.6 ng/mL and 40.8 ng/mL
CONCENTRATION UV4 in human plasma (Cohort 7, nominal day 2, nominal hour 24, subject with all samples <LLOQ): <LLOQ (0.500) ng/mL
CONCENTRATION UV4 in human plasma (Cohort 7, nominal day 2, nominal hour 36, individual subjects): 17.4 ng/mL and 8.03 ng/mL and 10.9 ng/mL and 14.8 ng/mL and 12.7 ng/mL
CONCENTRATION UV4 in human plasma (Cohort 7, nominal day 2, nominal hour 36, subject with all samples <LLOQ): <LLOQ (0.500) ng/mL
CONCENTRATION UV4 in human plasma (Cohort 7, nominal day 3, nominal hour 48, individual subjects): 7.94 ng/mL and 3.58 ng/mL and 4.75 ng/mL and 6.57 ng/mL and 8.76 ng/mL and 6.60 ng/mL
CONCENTRATION UV4 in human plasma (Cohort 7, nominal day 3, nominal hour 48, subject with all samples <LLOQ): <LLOQ (0.500) ng/mL
CONCENTRATION UV4 in human plasma (Cohort 8, nominal day 1, nominal hour 0, subjects with all samples <LLOQ): <LLOQ (0.500) ng/mL
CONCENTRATION UV4 in human plasma (Cohort 8, nominal day 1, nominal hour 0.5, subjects with all samples <LLOQ): <LLOQ (0.500) ng/mL
CONCENTRATION UV4 in human plasma (Cohort 8, nominal day 1, nominal hour 1, subjects with all samples <LLOQ): <LLOQ (0.500) ng/mL
CONCENTRATION UV4 in human plasma (Cohort 8, nominal day 1, nominal hour 1.5, subjects with all samples <LLOQ): <LLOQ (0.500) ng/mL
CONCENTRATION UV4 in human plasma (Cohort 8, nominal day 1, nominal hour 2, subjects with all samples <LLOQ): <LLOQ (0.500) ng/mL
CONCENTRATION UV4 in human plasma (Cohort 8, nominal day 1, nominal hour 2.5, subjects with all samples <LLOQ): <LLOQ (0.500) ng/mL
CONCENTRATION UV4 in human plasma (Cohort 8, nominal day 1, nominal hour 3, subjects with all samples <LLOQ): <LLOQ (0.500) ng/mL
CONCENTRATION UV4 in human plasma (Cohort 8, nominal day 1, nominal hour 4, subjects with all samples <LLOQ): <LLOQ (0.500) ng/mL
CONCENTRATION UV4 in human plasma (Cohort 8, nominal day 1, nominal hour 6, subjects with all samples <LLOQ): <LLOQ (0.500) ng/mL
CONCENTRATION UV4 in human plasma (Cohort 8, nominal day 1, nominal hour 9, subjects with all samples <LLOQ): <LLOQ (0.500) ng/mL
CONCENTRATION UV4 in human plasma (Cohort 8, nominal day 1, nominal hour 12, subjects with all samples <LLOQ): <LLOQ (0.500) ng/mL
CONCENTRATION UV4 in human plasma (Cohort 8, nominal day 1, nominal hour 18, subjects with all samples <LLOQ): <LLOQ (0.500) ng/mL
CONCENTRATION UV4 (Cohort 1, nominal day 1, nominal hour 0): <LLOQ (0.500) ng/mL
CONCENTRATION UV4 (Cohort 1, nominal day 3, nominal hour 48): <LLOQ (0.500) ng/mL
